Laboratory results reported in patent US10898481B2 (priority 2018, dated 2021).
Like-named read-outs stand apart in the source and are kept apart here.

Key:
[1] = target: hADORA1/CHO (hA1 expressing) cells (Homo sapiens (Human), UniProt P30542); test: cell-based; details: FLIPR inhibition, 10 μM adenosine, read-out: cAMP & FLIPR IC50 (nM) hA1
[2] = target: hA2b/CHO (Homo sapiens (Human), UniProt P29275); test: cAMP inhibition assay in hA2b/CHO cells, 10 μM adenosine; format: cell-based; details: read-out: cAMP & FLIPR IC50 (nM) hA2b;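 also: cells exposed to compound 30 min at 37 °C, then stimulated with adenosine a further 30 min, cAMP read after 60 min at room temperature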
hA2b/CHO, sequence (P29275 whole entry): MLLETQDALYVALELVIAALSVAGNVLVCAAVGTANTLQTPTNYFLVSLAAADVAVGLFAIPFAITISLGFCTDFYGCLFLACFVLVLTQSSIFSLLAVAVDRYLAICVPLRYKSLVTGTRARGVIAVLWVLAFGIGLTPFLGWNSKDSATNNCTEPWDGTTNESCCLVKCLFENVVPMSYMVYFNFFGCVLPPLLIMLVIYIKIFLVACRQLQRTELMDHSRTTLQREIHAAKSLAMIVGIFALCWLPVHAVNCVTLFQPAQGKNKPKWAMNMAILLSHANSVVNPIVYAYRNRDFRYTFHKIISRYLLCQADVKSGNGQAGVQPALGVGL
Protocol: (§1) hA2a/CHO, hA2b/CHO, hA3/CHO and mA2a/CHO (Genscript) were plated at 5×10^3 cells/well into 384-well polystyrene plates at the day of experiment. Compounds were pre-incubated with cells for 30 min at 37° C., 5% CO2. Then 10 μM adenosine was added to the cells and incubated for 30 min at 37° C., 5% CO2. Detection reagent (CISBIO) was added and the plates were incubated for 60 min at room temperature. The signal was captured by Envision.

[3] = target: hA2a (Homo sapiens (Human), UniProt P29274); test: Radioligand binding to hA2a membrane with [3H]-CGS21680
hA2a, sequence (P29274 whole entry): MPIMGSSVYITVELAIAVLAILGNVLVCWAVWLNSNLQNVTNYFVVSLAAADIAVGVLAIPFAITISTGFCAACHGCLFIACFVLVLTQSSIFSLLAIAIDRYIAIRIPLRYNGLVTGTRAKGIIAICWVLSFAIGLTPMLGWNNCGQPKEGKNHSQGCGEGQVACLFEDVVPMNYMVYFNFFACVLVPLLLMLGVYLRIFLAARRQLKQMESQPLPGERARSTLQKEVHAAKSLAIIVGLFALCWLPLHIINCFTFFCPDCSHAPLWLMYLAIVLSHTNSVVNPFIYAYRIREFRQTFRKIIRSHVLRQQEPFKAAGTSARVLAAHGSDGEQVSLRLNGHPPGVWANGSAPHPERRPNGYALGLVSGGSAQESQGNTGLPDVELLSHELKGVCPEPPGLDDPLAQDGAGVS
Text: The empty boxes in the tables below indicate data not collected yet.

[4] = target: hA2a/CHO (Homo sapiens (Human), UniProt P29274); test: cAMP inhibition assay in hA2a/CHO cells, 10 μM adenosine; format: cell-based; details: read-out: cAMP & FLIPR IC50 (nM) hA2a;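 also: compounds added to cells 30 min ahead of adenosine, then a further 30 min at 37 °C with adenosine before cAMP detection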
hA2a/CHO, sequence (P29274 whole entry): as above
Protocol: as §1

[5] = target: mA2a/CHO (Mus musculus (Mouse), UniProt Q60613); test: cAMP inhibition assay in mA2a/CHO cells, 10 μM adenosine; format: cell-based; details: read-out: cAMP & FLIPR IC50 (nM) mA2a;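 also: compounds preincubated 30 min at 37 °C before the adenosine challenge, then 30 min further stimulation, readout after 60 min detection reagent incubation at room temperature in 384-well plates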
mA2a/CHO, sequence (Q60613 whole entry): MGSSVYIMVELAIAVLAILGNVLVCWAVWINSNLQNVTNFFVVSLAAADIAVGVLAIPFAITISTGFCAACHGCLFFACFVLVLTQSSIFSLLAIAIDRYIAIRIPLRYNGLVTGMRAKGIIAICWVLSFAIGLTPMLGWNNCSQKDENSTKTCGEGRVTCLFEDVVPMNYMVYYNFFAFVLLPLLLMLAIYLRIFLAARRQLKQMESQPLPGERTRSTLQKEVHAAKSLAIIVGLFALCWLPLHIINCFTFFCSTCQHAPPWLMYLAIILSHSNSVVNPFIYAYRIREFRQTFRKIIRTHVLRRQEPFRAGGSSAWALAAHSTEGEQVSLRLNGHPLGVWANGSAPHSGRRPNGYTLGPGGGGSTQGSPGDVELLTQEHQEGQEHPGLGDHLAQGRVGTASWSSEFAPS
Protocol: as §1

[6] = Binding Affinity (IC50 nM) hA2a
[7] = read-out: Binding Affinity (IC50 nM) hA2a

hADORA1/CHO (hA1 expressing) cells, sequence (P30542 whole entry): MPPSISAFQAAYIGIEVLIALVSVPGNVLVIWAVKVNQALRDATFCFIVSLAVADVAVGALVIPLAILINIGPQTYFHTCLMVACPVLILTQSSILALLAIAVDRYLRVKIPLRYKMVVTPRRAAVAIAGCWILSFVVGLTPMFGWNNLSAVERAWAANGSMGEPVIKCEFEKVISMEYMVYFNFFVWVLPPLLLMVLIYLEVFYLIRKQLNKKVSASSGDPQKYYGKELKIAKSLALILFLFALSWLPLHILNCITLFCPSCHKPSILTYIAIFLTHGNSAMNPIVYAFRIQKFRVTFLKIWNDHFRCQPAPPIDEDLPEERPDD

SMILES | IC50 [1] [nM] | IC50 [2] [nM] | IC50 [3, 6] [nM] | IC50 [4] [nM] | IC50 [5] [nM] | IC50 [3, 7] [nM]
CC(NC(=O)c1nc(-c2ccc(=O)n(C)c2)c(-c2ncco2)nc1N)c1c(F)cccc1F (single isomer, unassigned) [Example 40, 3-amino-N-(1-(2,6-difluorophenyl)ethyl)-6-(1-methyl-6-oxo-1,6-dihydropyridin-3-yl)-5-(oxazol-2-yl)pyrazine-2-carboxamide] | 10000 | 1350 | 5.2 | 51 | 211 | 
Cc1cnc2ccc(-c3nc(C(=O)NCC4CCO4)c(N)nc3-c3ncco3)cn12 (single isomer, unassigned) [Example 134] |  | 314 | 5.5 | 4.3 | 77 | 
Cc1cnc2ccc(-c3nc(C(=O)NCC4CCO4)c(N)nc3-c3ncco3)cn12 (single isomer, unassigned) [Example 135] |  | 182 | 2 | 2.3 | 23 | 
Cn1nc(-c2nc(C(=O)NCc3c(F)cccc3F)c(N)nc2-c2ncco2)ccc1=O [Example 37, 3-amino-N-(2,6-difluorobenzyl)-6-(1-methyl-6-oxo-1,6-dihydropyridazin-3-yl)-5-(oxazol-2-yl)pyrazine-2-carboxamide] | 28 | 95 |  | 9.3 | 56 | 1
Nc1nc(-c2ncco2)c(-c2ccc(=O)n(CCO)c2)nc1C(=O)NCc1c(F)cccc1F [Example 41, 3-amino-N-(2,6-difluorobenzyl)-6-(1-(2-hydroxyethyl)-6-oxo-1,6-dihydropyridin-3-yl)-5-(oxazol-2-yl)pyrazine-2-carboxamide] | 123 | 38 |  | 1.6 | 13 | 3.3
Cc1ccn(-c2nc(N)c(C(=O)NC[C@H]3CCCN3C)nc2-c2ccc3ncc(C)n3c2)n1 [Example 201-2, (R)-3-amino-5-(3-methyl-1H-pyrazol-1-yl)-6-(3-methylimidazo[1,2-a]pyridin-6-yl)-N-((1-methylpyrrolidin-2-yl)methyl)pyrazine-2-carboxamide] | > 10000 | > 10000 |  | 29 | 519 | 
Cc1cnc2ccc(-c3nc(C(=O)N4CC[C@@H](N(C)C)C4)c(N)nc3-c3ccc(F)cc3)cn12 [Example 203-1, (R)-(3-amino-5-(4-fluorophenyl)-6-(3-methylimidazo[1,2-a]pyridin-6-yl)pyrazin-2-yl)(3-(dimethylamino)pyrrolidin-1-yl)methanone] | 91 | > 10000 |  | 15 | 161 | 
COC[C@H]1CCCN1C(=O)c1nc(-c2ccc3ncc(C)n3c2)c(-c2ccc(F)cc2)nc1N [Example 204-1, (R)-(3-amino-5-(4-fluorophenyl)-6-(3-methylimidazo[1,2-a]pyridin-6-yl)pyrazin-2-yl)(2-(methoxymethyl)pyrrolidin-1-yl)methanone] | 294 | > 10000 |  | 49 | 249 | 
Cc1cnc2ccc(-c3nc(C(=O)NCCc4nccn4C)c(N)nc3-c3ncco3)cn12 [Example 205, 3-amino-N-(2-(1-methyl-1H-imidazol-2-yl)ethyl)-6-(3-methylimidazo[1,2-a]pyridin-6-yl)-5-(oxazol-2-yl)pyrazine-2-carboxamide] | 153 | 67 |  | 2 | 7.5 | 
Cc1cnc2ccc(-c3nc(C(=O)NCCN4CCCC4=O)c(N)nc3-c3ncco3)cn12 [Example 208, 3-amino-6-(3-methylimidazo[1,2-a]pyridin-6-yl)-5-(oxazol-2-yl)-N-(2-(2-oxopyrrolidin-1-yl)ethyl)pyrazine-2-carboxamide] | 9540 | 1230 |  | 8.9 | 19 | 
Cc1cnc2ccc(-c3nc(C(=O)NCCC(=O)N4CCCCC4)c(N)nc3-c3ncco3)cn12 [Example 215, 3-amino-6-(3-methylimidazo[1,2-a]pyridin-6-yl)-5-(oxazol-2-yl)-N-(3-oxo-3-(piperidin-1-yl)propyl)pyrazine-2-carboxamide] | 891 | 568 |  | 12 | 9.6 | 
CNC(=O)CCNC(=O)c1nc(-c2ccc3ncc(C)n3c2)c(-c2ncco2)nc1N [Example 225, 3-amino-N-(3-(methylamino)-3-oxopropyl)-6-(3-methylimidazo[1,2-a]pyridin-6-yl)-5-(oxazol-2-yl)pyrazine-2-carboxamide] | > 10000 | 254 |  | 32 | 177 | 
Cc1cnc2ccc(-c3nc(C(=O)NC[C@@H]4CCCO4)c(N)nc3-n3nccn3)cn12 [Example 226, (S)-3-amino-6-(3-methylimidazo[1,2-a]pyridin-6-yl)-N-((tetrahydrofuran-2-yl)methyl)-5-(2H-1,2,3-triazol-2-yl) pyrazine-2-carboxamide] | 947 | 177 |  | 3 | 30 | 
Cc1cnc2ccc(-c3nc(C(=O)NCCN(C)c4ccccn4)c(N)nc3-c3ncco3)cn12 [Example 240, 3-amino-N-(2-(methyl(pyridin-2-yl)amino)ethyl)-6-(3-methylimidazo[1,2-a]pyridin-6-yl)-5-(oxazol-2-yl)pyrazine-2-carboxamide] | 108 | 521 |  | 18 | 65 | 
Cc1cnc2ccc(-c3nc(C(=O)NC[C@H]4CCOC4)c(N)nc3-n3nccn3)cn12 [Example 242, (R)-3-amino-6-(3-methylimidazo[1,2-a]pyridin-6-yl)-N-((tetrahydrofuran-3-yl)methyl)-5-(2H-1,2,3-triazol-2-yl) pyrazine-2-carboxamide] | 294 | 683 |  | 2.9 | 51 | 
COCCNC(=O)c1nc(-c2ccc3ncc(C)n3c2)c(-n2nccn2)nc1N [Example 243, 3-amino-N-(2-methoxyethyl)-6-(3-methylimidazo[1,2-a]pyridin-6-yl)-5-(2H-1,2,3-triazol-2-yl)pyrazine-2-carboxamide] | 92 | 181 |  | 7.6 | 30 | 
Cc1cnc2ccc(-c3nc(C(=O)NCCN(C)c4ccccc4)c(N)nc3-c3ncco3)cn12 [Example 244, 3-amino-N-(2-(methyl(phenyl)amino)ethyl)-6-(3-methylimidazo[1,2-a]pyridin-6-yl)-5-(oxazol-2-yl)pyrazine-2-carboxamide] | 260 | 157 |  | 16 | 31 | 
Cc1cnc2ccc(-c3nc(C(=O)NC4CC4)c(N)nc3-c3ncco3)cn12 [Example 245, 3-amino-N-cyclopropyl-6-(3-methylimidazo[1,2-a]pyridin-6-yl)-5-(oxazol-2-yl)pyrazine-2-carboxamide] | 87 | 247 |  | 3.8 | 39 | 
COC1CCC(NC(=O)c2nc(-c3ccc4ncc(C)n4c3)c(-c3ncco3)nc2N)CC1 (stereo not shown) [Example 249, 3-amino-N-(4-methoxycyclohexyl)-6-(3-methylimidazo[1,2-a]pyridin-6-yl)-5-(oxazol-2-yl)pyrazine-2-carboxamide] | > 10000 | 423 |  | 5.7 | 50 | 
